Source: paper PMC11228623, “Photoswitchable glycoligands targeting Pseudomonas aeruginosa LecA” (Beilstein Journal of Organic Chemistry, 2024)

Key:
LecA [1] = target: T1, LecA (Pseudomonas aeruginosa, UniProt Q05097); test: Isothermal titration calorimetry (ITC) of ligand binding to LecA; details: ITC Kd, E-isomer the better binder
T1 construct: LecA was expressed and purified as previously described; made in house
Source text: The interaction of compounds 1–5 with LecA was characterized by ITC analysis for both the E- and Z-isomers. As the initial isomer state of the galactosyl azobenzenes is the E-form, ITC measurements made on E-isomers correspond to 100% purity of them. After 370 nm irradiation to induce the photoizomerisation process, a photostationary state is reached between E- and Z-isomers. For ITC measurements made on Z-isomers, the percentage of isomers is shown in the column Z/E (PSS370) of Table 1. Depending on the corresponding galactosyl azobenzenes, the Z-isomer is pure from 87 to 99%. Spectroscopy measurements were performed on ligand solution just before each experiment to check the efficiency of the isomerization, with results as indicated in Table 2.
Isothermal titration calorimetry: LecA was expressed and purified as previously described. All experiments were performed at 25 °C with an ITC200 isothermal titration calorimeter (Microcal-Malvern Panalytical, Grenoble, France). The lyophilized LecA protein was dissolved in a buffer composed of 20 mM Tris^.HCl (pH 7.5), 100 mM NaCl and 100 μM CaCl2 with 5% or 10% DMSO final. All compounds were first dissolved in DMSO then in same buffer for a final concentration of 5% or 10% DMSO. […]

[2] = Fatigue resistance under alternated UV/vis irradiation cycles; type: physicochemical; details: alternated UV (370 nm) and visible irradiation cycles, aqueous media
Source text: Figure 2 (Left) Absorption spectra and (right) fatigue resistance of 1 under alternated 370/485 nm irradiations in Tris buffer/DMSO 95:5 at rt: E-1 (black line), PSS370 (blue line), PSS485 (red line). Irradiation conditions at 370 nm: 12.8 mW·cm^−2, 20 s; at 485 nm: 1.5 mW·cm^−2, 480 s.
General procedure for the fatigue resistance measurements
Starting from a solution of compound containing 100% of the E-isomer, the solution was irradiated sequentially at 370 nm and at 485 nm or 438 nm. The absorbance was measured before and after each illumination realized with constant optical length distance. The sequence, which constitutes a cycle, was repeated for a minimum of 10 times.
Fatigue resistance of the compound 2
Figure S15: Left: absorption spectra of E-2 (black line), PSS370 (blue line), PSS438 (red line) in Tris buffer/ DMSO (9/1); Right: Fatigue resistance followed by the absorption band at 3 21 nm under alternate 3 70 nm/438 nm irradiation cycles in Tris buffer/DMSO (9/1). Irradiation conditions: 40 s at P 370 = 14.1 mW cm-2 and 180 s at P 438 […]
Fatigue resistance of the compound 3
Figure S16: Left: absorption spectra of E-3 (black line), PSS 370 (blue line), PSS 485 (red line) in Tris buffer/DMSO (9/1); Right: Fatigue resistance followed by the absorption band at 3 64 nm under alternate 3 70 nm/485 nm irradiation cycles in Tris buffer/DMSO (9/1). […]

[3] = Photostationary state composition (E/Z ratios) by 1H NMR and UV–vis after irradiation; type: physicochemical; details: for Z/E PSS370: after 370 nm irradiation; for E/Z PSS485: after 485 nm irradiation; for E-isomer mixed with the Z-isomer as established by PSS370: Z-isomer samples used for ITC
Method: General experimental details. Commercially available solvents and reagents were used without further purification. Reactions carried out under anhydrous conditions are performed under argon in glassware previously dried in an oven. DMF and THF were previously dried through alumina or molecular sieves-containing cartridges using a solvent purificator MBRAUN SPS-800. All the reactions with azobenzene-containing substrates were carried out in the dark. Reactions were monitored by TLC on Silica Gel 60F-254 plates with detection by UV (254 nm or 365 nm) or by spraying with 10% H2SO4 in EtOH and heating about 30 s at 400–600 °C. Column chromatography purification was performed on CombiFlash® Rf+ and RediSep® RF or RF Gold normal phase silica columns (with UV detection at 254 and 350 nm for all azobenzene derivatives), or by flash column chromatography employing silica gel (60 Å pore size, 40–63 µm). ^1H and ^13C NMR spectra were recorded on a JEOL ECS-400 spectrometer or on Bruker Avance 300 and 400 spectrometers. Structural assignments were made with additional information from gCOSY, HMBC, and gHMQC experiments. High-resolution mass spectra (HRMS) were performed on a Bruker maXis mass spectrometer by the SALSA platform from ICOA laboratory or on an Agilent 1260 Infinity system with a quadrupole time-of-light (Q-TOF) mass analyzer. Melting points were measured with a Köfler bench previously calibrated using the usual standard references or on a digital melting point capillary apparatus. Specific optical rotations were measured in solution using sodium light at 589 nm where no absorption occurred for all compounds. Absorption spectra were recorded on a Cary-5000 spectrophotometer from Agilent Technologies. Photochromic reactions were induced in situ by a continuous irradiation Hg/Xe lamp (Hamamatsu, LC6- or LC8-Lightningcure, 200 W) equipped with narrow band interference filters of appropriate wavelengths: Semrock BP-370/36 for λirr = 370 nm, Semrock FF01-438/24-25 for λirr = 438 nm, Semrock FF01-485/20-25 for λirr = 485 nm. The irradiation power was measured using a photodiode from Ophir (PD300-UV) and corrected after a measurement with an additional Schott long pass filter (LP-545) to measure NIR contribution (PLP) that is let through the Semrock filter (PTotal), considering a 90% transmittance: Pλirr = PTotal − (10/9 × PLP). The photoconversion reaction was followed by a combination of ^1H NMR and UV–vis absorption spectra, realized by successive irradiations at 370 nm (438 or 485 nm). The E/Z ratios were determined by integration of the azobenzene proton signals of each isomer. A quartz cell of 10 mm path length has been used for solution measurement.
The photoconversion yields were measured from a solution of the compounds in deuterated solvent and monitored by ^1H NMR and UV–vis absorption, after successive irradiations at 370 nm (438 nm or 485 nm) in the case of the PSS. The E/Z ratios were determined by integration of characteristic of each isomer.

[4] = Thermal Z→E isomerization tracked by UV–vis absorption (half-life of Z-isomers); type: physicochemical; details: Tris buffer with 5% DMSO, pH 7.5, solvent not given; read-out: t1/2 (thermostability of Z-isomer) (converted)
Source text: The photoswitching properties of galactosyl azobenzenes 1–5 were realized in water or in Tris buffer containing 5 to 10% DMSO, in accordance with the biophysical evaluation conditions by using ITC. All these compounds undergo reversible photoisomerization under UV–vis irradiation in aqueous solution. […] After irradiation at 370 nm to induce the E-to-Z photoisomerization, the band at 353 nm decreases concomitantly to the appearance of two new bands at 312 and 438 nm (Figure 2, blue line). Two isosbestic points can also be observed at 310 and 429 nm. The back Z→E photoisomerization can be achieved by illumination at 485 nm (Figure 2, red line). ^1H NMR spectroscopy has been used to determine the Z/E ratios during irradiation, showing an excellent photoconversion yield of Z/E = 99:1 at PSS370, and E/Z = 87:13 at PSS485 in D2O/5% DMSO (Figure 3). […] All the photophysical properties of compounds 1–5 are summarized in Table 1 (spectra are shown in Figure S1–S24 in Supporting Information File 1). Concerning the meta-substituted azobenzene 2, a 30 nm blue shift is observed for the π→π* transition (λmax = 321 nm) as well as a lower absorption coefficient compared to the para-derivative 1 (Table 1, entries 3 and 4 vs entries 1 and 2), probably due to less-conjugated azobenzene. […]
The half-lif e o f Z -1 at roo m temperatur e wa s the n calculated: […]

LecA [5] = target: T1, LecA; details: ref [5]–[8][32]; cited from earlier work

T1 sequence (Q05097 whole entry): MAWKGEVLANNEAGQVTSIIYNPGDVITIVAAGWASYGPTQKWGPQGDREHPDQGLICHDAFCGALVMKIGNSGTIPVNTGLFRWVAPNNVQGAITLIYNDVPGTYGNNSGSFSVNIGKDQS

Row | SMILES | Z/E PSS370 ([3]; Tris/DMSO 10%) | E-isomer mixed with the Z-isomer as established by PSS370 [3] | E/Z PSS485 ([3]; Tris/DMSO 10%) | difference in affinity between E- and Z-isomers (LecA [1]) | Z/E PSS370 ([3]; H2O) | E/Z PSS485 ([3]; H2O) | Z/E PSS370 ([3]; Tris/DMSO 5%) | E/Z PSS485 ([3]; Tris/DMSO 5%) | further results
1 | NCCOc1ccc(/N=N/c2ccc(O[C@@H]3O[C@H](CO)[C@H](O)[C@H](O)[C@H]3O)cc2)cc1 [compound 1] | – | – | – | 3 fold | 99/1 | 87/13 | 99/1 | 87/13 | fatigue resistance [2]: no degradation has been observed after more than 10 UV–vis irradiation cycles
2 | NCCOc1ccc(/N=N/c2ccc(S[C@@H]3O[C@H](CO)[C@H](O)[C@H](O)[C@H]3O)cc2)cc1 [compound 3] | 99/1 | – | 71/29 | 2 fold | 99/1 | 73/27 | – | – | –
3 | O=C[C@H](O)[C@@H](O)[C@@H](O)[C@H](O)CO [ᴅ-galactose] | – | – | – | – | – | – | – | – | Kd (LecA [5]): 34 µM

More lines, main results first:

Row | Z/E PSS370 ([3]; Tris/DMSO 10%) | E-isomer mixed with the Z-isomer as established by PSS370 [3] | E/Z PSS485 ([3]; Tris/DMSO 10%) | SMILES | difference in affinity between E- and Z-isomers (LecA [1]) | Z/E PSS370 ([3]; H2O) | E/Z PSS485 ([3]; H2O) | Z/E PSS370 ([3]; Tris/DMSO 5%) | E/Z PSS485 ([3]; Tris/DMSO 5%) | further results
4 | 87/13 | 13% | – | NCCOc1cccc(/N=N/c2cccc(O[C@@H]3O[C@H](CO)[C@H](O)[C@H](O)[C@H]3O)c2)c1 [compound 2] | – | – | – | 87/13 | 71/29 | half-life [4]: 29 days; E/Z PSS438 ([3]; Tris/DMSO 10%, after 438 nm irradiation (footnote d)): 74/26^d
5 | 99/1 | – | 72/28 | NCCOc1ccc(/N=N/c2cccc(S[C@@H]3O[C@H](CO)[C@H](O)[C@H](O)[C@H]3O)c2)cc1 [compound 4] | – | – | – | – | – | –
6 | 92/8 | 8% | 60/40 | NCCOc1ccc(/N=N/c2ccccc2S[C@@H]2O[C@H](CO)[C@H](O)[C@H](O)[C@H]2O)cc1 [compound 5] | – | – | – | – | – | –
